Source: US20080261923A1, “Alkene Mimics” (priority 2004, published 2008)

Target: human Pin1 (Homo sapiens, UniProt Q13526)
Test: IC50 measurement of inhibitors for Pin1 (chymotrypsin-coupled peptidyl-prolyl isomerase assay, SucAEPF-pNA)
Type: biochemical
Conditions: cis substrate SucAEPF-pNA 43.2 μM, 31 mM HEPES pH 7.8, 4° C., absorbance at 390 nm; read-out: IC50 value for the inhibition of human Pin1 peptidyl-prolyl isomerase activity
Experimental: Measurement of human Pin1 peptidyl-prolyl isomerase activity. The concentration of the cis conformation of substrate, SucAEPF-pNA, was determined by the UV absorbance of pNA (ε=12250 at […]) after cleavage by α-chymotrypsin. The cis component of the substrate was approximately 51%. The assay buffer (1050 μL of 35 mM HEPES, pH 7.8 at 0° C.; final concentration 31 mM HEPES) and Pin1 (10 μL of a 8.0 μM stock solution, concentration measured by Bradford assay, final concentration 67 nM) were pre-equilibrated in the spectrometer until the temperature reached 4.0° C. Immediately before the assay was started, 120 μL of ice-cooled α-chymotrypsin solution (60 mg/mL in 0.001 M HCl; final concentration 6 mg/mL) was added. Additional substrate solvent (0.47 M LiCl/TFE) was added as needed to bring the total volume of substrate and cosolvent to 10 μL. The peptide substrate, dissolved in dry 0.47 M LiCl/TFE, was added to the cuvette via syringe and the solution was mixed vigorously by inversion 3 times. The final volume in a semi micro 1 cm path length polystyrene cell was 1.2 mL.
IC50 measurement of inhibitors for Pin1. Human Pin1 was assayed at a cis substrate concentration of 43.2 μM. […] After a mixing delay of 6-8 sec, the progress of the reaction was monitored by absorbance at 390 nm for 90 sec.

Chain of human Pin1 (Q13526 whole entry): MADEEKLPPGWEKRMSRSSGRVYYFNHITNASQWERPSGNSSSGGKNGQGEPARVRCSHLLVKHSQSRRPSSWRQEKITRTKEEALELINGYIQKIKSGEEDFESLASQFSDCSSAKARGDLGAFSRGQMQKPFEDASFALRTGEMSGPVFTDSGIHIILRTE

IC50: 970 nM
SMILES: CC(=O)N[C@@H](Cc1ccccc1)C(=O)N[C@@H](Cc1ccc(O)cc1)C(=O)N[C@H](/C=C1/CCC[C@H]1C(=O)N[C@@H](CCCNC(=N)N)C(N)=O)COP(=O)(O)O [Ac-Phe-Tyr-phosphoSer-Ψ[(Z)CH═C]-Pro-Arg-NH2]
